From patent publication US11572341B2, “Biguanide compound and use thereof” (ImmunoMet Therapeutics Inc., priority 2014, dated 2023)
Structures can show the parent of a compound that is named as a salt. Where two headings read alike, the source gives them in different places.

Key:
A549 cell line = assay: Oxygen consumption rate (OCR) and extracellular acidification rate (ECAR) in A549 cells; assay type: cell-based; conditions: Homo sapiens, A549, 3 hrs, control group set at 0%, phenformin set at 100%
Method: A549 cell line (purchased from ATCC-American Type Culture Collection (ATCC)), a lung cancer cell line, is treated with the compounds and OCR and ECAR of the cells are measured and thereby those compounds which show an improved effect compared to phenformin are selected.
The cells are plated on an XF96 cell culture plate containing RPMI1640 medium at a concentration of 5×10^3 cells and cultured in 37° C., 5% CO2 conditions to allow them to be attached thereto.
After 24 hours, the cells are treated with the drug at a concentration of 10 μM for 2 hours, the existing medium is washed with a medium for XF analysis (15 mM D-glucose, 15 mM sodium pyruvate, 4 mM L-glutamine, pH 7.4) to remove the medium using a Prep station and treated again with the drugs, and cultured in 37° C., non-CO2 conditions in the Prep station for 1 hour. While culturing in the Prep station, a sensor cartridge is calibrated for 1 hour and added into a plate containing cells, and OCR and ECAR analyses are performed.
The measured values of OCR and ECAR of the compounds are calculated with reference to the measured values of OCR and ECAR of the control group which is set at 0% and the values of OCR and ECAR of phenformin, which was used as the reference drug, set at 100%, and those compounds which show an improved effect compared to those of phenformin are selected.
From the primarily-selected compounds, those compounds which show an improved effect are treated at various concentrations (0 μM, 0.5 μM, 1 μM, 5 μM, 10 μM, and 20 μM) and their reactivity according to concentration was obtained.

AMPKa [pT172] = assay: AMPKa activation [pT172] in MCF7 cell; assay type: cell-based
HCT116 cells = assay: Inhibitory effect against cancer cell proliferation (MTT); assay type: cell-based, human; conditions: Homo sapiens, HCT-116; HCT116, MTT, 48 hours; read-out: IC50 (uM) @ HCT116
Method: The formazane crystals thus formed were dissolved using dimethyl sulfoxide (DMSO) and absorbance of the solution was measured at 560 nm. After culturing for 48 hours, […] synthesized in Examples was indicated as cell viability (%) according to each treated concentration.

| IC50 (HCT116 cells) | SMILES | Emax at 10 µM (A549 cell line; read-out: ECAR (A549, 3 hrs)) | Emax at 10 µM (A549 cell line; read-out: OCR (A549, 3 hrs)) | AMPKa activation [pT172] (Unit/ml) @ MCF7 cell (AMPKa [pT172]; 50 uM) | AMPKa activation [pT172] (Unit/ml) @ MCF7 cell (AMPKa [pT172]; 5 uM) | AMPKa activation [pT172] (Unit/ml) @ MCF7 cell (AMPKa [pT172]; 10 uM) |
| --- | --- | --- | --- | --- | --- | --- |
| – | CC(C)NC(=N)NC(=N)NCc1cccnc1.Cl [Example 6, N1-isopropyl-N5-1-(pyridin-3-yl)methyl Biguanide Hydrochloride] | 9.3% | 16.7% | 4.8 Unit/ml | – | – |
| > 100 µM | Cl.N=C(NCCc1ccc(Cl)cc1)NC(=N)N1CCCCC1 [Example 13, N1-piperidin-N5-4-chloro)phenethyl Biguanide Hydrochloride] | 61% | -20% | – | – | – |
| > 100 µM | Cl.N=C(NCCc1ccccc1Cl)NC(=N)N1CCCCC1 [Example 14, N1-piperidin-N5-2-chloro)phenethyl Biguanide Hydrochloride] | 63% | -7% | – | – | – |
| – | N=C(NC(=N)N1CCCC1)Nc1c(F)cccc1F [Example 80, N1-pyrrolidin-N5-(2,6-difluoro)phenyl Biguanide Hydrochloride] | 1% | 3% | – | – | – |
| – | CN(C(=N)NC(=N)N1CCCC1)c1ccc(OC(F)(F)F)cc1 [Example 82, N1-pyrrolidin-N5-methyl-N5-(4-trifluoromethoxy)phenyl Biguanide Hydrochloride] | 6.9% | 7.7% | – | – | – |
| – | CN(C)C(=N)NC(=N)N(C)c1ccc(OC(F)(F)F)cc1 [Example 85, N1,N1-dimethyl-N5-methyl-N5-(4-trifluoromethoxy)phenyl Biguanide Hydrochloride] | 31% | -6% | – | – | – |
| – | N=C(N)N/C(=N/CCc1ccccc1)NCCc1cccs1 [Example 103, N1 (2-thiophen-2-yl)ethyl-N2-phenethyl Biguanide Hydrochloride] | -43% | 36% | – | – | – |
| – | N=C(N)N/C(=N/CCc1ccc2c(c1)OCO2)NCCc1cccs1 [Example 104, N1-2-thiophen-2-)ethyl-N2-2-benzo[d][1,3]dioxol-5-yl)ethyl Biguanide Hydrochloride] | -8.3% | 31.3% | – | – | – |
| – | C/N=C(/NC(=N)N1CCCC1)Nc1ccc(OC(F)(F)F)cc1 [Example 105, N1-(4-trifluoromethoxy)phenyl-N2-methyl-N5-pyrrolidine Biguanide Hydrochloride] | -25.5% | 25.1% | – | – | – |
| – | C/N=C(/NC(=N)N1CCCC1)N(C)c1ccc(OC(F)(F)F)cc1 [Example 106, N1-methyl-N1-(4-trifluoromethoxy)phenyl-N2-methyl-N5-pyrrolidine Biguanide Hydrochloride] | -7.5% | -6.6% | – | – | – |
| – | N=C(N)N/C(=N/C1CCCC1)NCc1ccc2c(c1)OCO2 [Example 107, N1-(benzo[d][1,3]dioxol-5-yl)methyl-N2-cyclopentyl Biguanide Hydrochloride] | -8.9% | -4.4% | – | – | – |
| 72.7 µM | Cl.N=C(N)NC(=N)Nc1ccccc1 [Example 113, N1-phenyl Biguanide Hydrochloride] | -24% | -3% | 28.6 Unit/ml | 9.9 Unit/ml | 10.1 Unit/ml |
| 101 µM | N=C(N)NC(=N)Nc1ccc(Br)cc1 [Example 116, N1-(4-bromo)phenyl Biguanide Hydrochloride] | -24% | 0% | 25.9 Unit/ml | – | – |
| > 100 µM | Cl.N=C(N)NC(=N)Nc1ccc(N2CCOCC2)cc1 [Example 122, N1-(4-morpholin-4-yl)phenyl Biguanide Hydrochloride] | 15.5% | 13.3% | 5.9 Unit/ml | – | – |
| > 100 µM | Cl.N=C(N)NC(=N)N1CCN(c2ccccn2)CC1 [Example 127, N1-4-(pyridin-2-yl)piperazine Biguanide Hydrochloride] | 7% | 10.2% | 5.8 Unit/ml | – | – |
| > 100 µM | Cl.N=C(N)NC(=N)NCc1ccc(F)cc1 [Example 132, N1-(4-fluoro)benzyl Biguanide Hydrochloride] | 44.7% | 39.3% | 8.1 Unit/ml | 6.1 Unit/ml | – |
| – | N=C(N)NC(=N)NCc1ccco1 [Example 144, N1-(furan-2-yl)methyl Biguanide Hydrochloride] | 7% | 47% | – | – | – |
| – | N=C(N)NC(=N)NCc1ccc(O)cc1F [Example 146, N1-(2-fluoro-4-hydroxy)benzyl Biguanide Hydrochloride] | 28% | 109% | – | – | – |
| – | N=C(N)NC(=N)NCCCc1ccc(F)cc1 [Example 147, N1-(4-fluoro)phenylpropyl Biguanide Hydrochloride] | 126% | 74% | – | – | – |
| – | COc1ccc(CCCNC(=N)NC(=N)N)cc1 [Example 148, N1-(4-methoxy)phenylpropyl Biguanide Hydrochloride] | 160% | 1% | – | – | – |
| – | N=C(N)NC(=N)NCc1ccccc1I [Example 149, N1-(2-iodo)benzyl Biguanide Hydrochloride] | 36% | 20% | – | – | – |
| – | N=C(N)NC(=N)NCc1cccc(I)c1 [Example 150, N1-(3-iodo)benzyl Biguanide Hydrochloride] | 125% | 105% | – | – | – |
| – | CC1CC(=O)N=C(NC(=N)N)N1.Cl (centres unmarked) [Example 164, Hydrochloride] | 9% | -1% | – | – | – |
